Assays:
[1] = target: T1, Peroxisome proliferator-activated receptor delta (Homo sapiens, UniProt Q03181); test: In vitro binding affinity for PPAR-delta
T1 sequence (Q03181 whole entry): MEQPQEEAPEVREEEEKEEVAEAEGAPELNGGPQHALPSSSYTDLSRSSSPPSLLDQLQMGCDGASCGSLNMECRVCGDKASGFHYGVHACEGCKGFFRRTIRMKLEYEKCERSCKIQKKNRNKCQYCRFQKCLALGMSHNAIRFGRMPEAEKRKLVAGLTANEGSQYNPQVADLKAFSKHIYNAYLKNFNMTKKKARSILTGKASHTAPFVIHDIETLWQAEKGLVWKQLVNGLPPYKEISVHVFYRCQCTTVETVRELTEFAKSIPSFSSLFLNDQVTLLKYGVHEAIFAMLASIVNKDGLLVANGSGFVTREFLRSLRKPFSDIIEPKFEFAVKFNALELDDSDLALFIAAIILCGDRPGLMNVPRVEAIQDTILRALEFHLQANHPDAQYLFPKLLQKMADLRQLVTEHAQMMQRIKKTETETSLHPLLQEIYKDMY

[2] = target: T2, Peroxisome proliferator-activated receptor alpha (Homo sapiens, UniProt Q07869); test: Effective concentration against human PPAR-alpha in Gal4 transactivation assay; assay type: functional
T2 sequence (Q07869 whole entry): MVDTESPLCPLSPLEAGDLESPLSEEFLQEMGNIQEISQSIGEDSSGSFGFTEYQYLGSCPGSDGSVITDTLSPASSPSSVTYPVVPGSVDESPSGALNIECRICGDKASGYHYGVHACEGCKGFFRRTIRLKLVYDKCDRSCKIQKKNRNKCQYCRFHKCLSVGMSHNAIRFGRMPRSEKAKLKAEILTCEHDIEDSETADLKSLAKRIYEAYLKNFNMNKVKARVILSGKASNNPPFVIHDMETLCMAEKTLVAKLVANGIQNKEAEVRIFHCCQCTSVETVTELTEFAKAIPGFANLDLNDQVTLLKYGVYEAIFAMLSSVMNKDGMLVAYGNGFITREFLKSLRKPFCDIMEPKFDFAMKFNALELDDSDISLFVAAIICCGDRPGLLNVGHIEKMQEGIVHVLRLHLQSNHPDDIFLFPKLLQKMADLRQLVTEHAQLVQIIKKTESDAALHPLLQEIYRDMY

[3] = target: T3, Peroxisome proliferator-activated receptor gamma (Homo sapiens, UniProt P37231); test: In vitro binding affinity for PPAR-gamma
T3 sequence (P37231 whole entry): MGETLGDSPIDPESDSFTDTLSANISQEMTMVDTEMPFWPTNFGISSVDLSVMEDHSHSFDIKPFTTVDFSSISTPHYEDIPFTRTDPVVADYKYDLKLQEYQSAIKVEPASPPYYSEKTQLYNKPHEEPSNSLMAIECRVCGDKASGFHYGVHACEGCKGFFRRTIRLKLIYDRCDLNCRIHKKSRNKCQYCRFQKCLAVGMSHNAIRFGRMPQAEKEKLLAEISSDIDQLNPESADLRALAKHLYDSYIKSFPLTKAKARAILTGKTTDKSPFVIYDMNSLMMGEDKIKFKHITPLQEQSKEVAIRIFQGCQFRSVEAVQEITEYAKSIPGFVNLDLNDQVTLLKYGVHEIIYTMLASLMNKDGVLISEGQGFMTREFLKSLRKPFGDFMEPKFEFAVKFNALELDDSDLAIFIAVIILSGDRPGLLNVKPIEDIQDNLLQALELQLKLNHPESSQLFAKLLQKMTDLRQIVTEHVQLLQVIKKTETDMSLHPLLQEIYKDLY

Cricetinae gen. sp. [4] = test: Effect at an oral dose of 0.1 mg/kg/day for 14 days on serum cholesterol level of hamster; assay type: functional, Cricetulus griseus
Cricetinae gen. sp. [5] = test: Effect at an oral dose of 0.1 mg/kg/day for 14 days on serum triglyceride level of hamster; assay type: functional, Cricetulus griseus
[6] = target: T3, Peroxisome proliferator-activated receptor gamma; test: Effective concentration against human PPAR-gamma in Gal4 transactivation assay; 28% response at 3 uM; assay type: functional
[7] = In vitro binding affinity for PPAR-alpha; design: species or system Homo sapiens
[8] = target: T4, Peroxisome proliferator-activated receptor alpha (Canis lupus familiaris, UniProt Q95N78); test: Effective concentration against canine PPAR-alpha in Gal4 transactivation assay
T4 sequence (Q95N78 whole entry): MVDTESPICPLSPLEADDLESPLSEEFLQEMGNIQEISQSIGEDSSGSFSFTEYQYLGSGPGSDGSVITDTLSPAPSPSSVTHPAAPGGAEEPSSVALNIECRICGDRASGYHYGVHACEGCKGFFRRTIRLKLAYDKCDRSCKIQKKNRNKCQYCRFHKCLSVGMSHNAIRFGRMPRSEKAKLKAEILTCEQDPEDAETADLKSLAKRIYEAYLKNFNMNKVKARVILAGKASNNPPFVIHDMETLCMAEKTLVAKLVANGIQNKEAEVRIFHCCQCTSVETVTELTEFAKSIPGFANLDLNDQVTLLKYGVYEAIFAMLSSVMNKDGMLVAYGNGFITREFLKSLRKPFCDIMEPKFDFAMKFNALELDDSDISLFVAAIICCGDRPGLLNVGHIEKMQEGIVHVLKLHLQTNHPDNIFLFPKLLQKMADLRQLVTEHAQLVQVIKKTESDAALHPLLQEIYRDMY

Cricetinae gen. sp. [9] = test: Effect at an oral dose of 0.3 mg/kg/day for 14 days on serum triglyceride level of hamster; assay type: functional, Cricetulus griseus
Cricetinae gen. sp. [10] = test: Effect at an oral dose of 0.3 mg/kg/day for 14 days on serum cholesterol level of hamster; assay type: functional, Cricetulus griseus
[11] = target: T3, Peroxisome proliferator-activated receptor gamma; test: Effective concentration against human PPAR-gamma in Gal4 transactivation assay; 4% response at 3 uM; assay type: functional
[12] = target: T3, Peroxisome proliferator-activated receptor gamma; test: Effective concentration against human PPAR-gamma in Gal4 transactivation assay; 25% response at 3 uM; assay type: functional
[13] = target: T3, Peroxisome proliferator-activated receptor gamma; test: Effective concentration against human PPAR-gamma in Gal4 transactivation assay; 11% response at 3 uM; assay type: functional
[14] = target: T3, Peroxisome proliferator-activated receptor gamma; test: Effective concentration against human PPAR-gamma in Gal4 transactivation assay; 12% response at 3 uM; assay type: functional
[15] = target: T3, Peroxisome proliferator-activated receptor gamma; test: Effective concentration against human PPAR-gamma in Gal4 transactivation assay; 56% response at 3 uM; assay type: functional
[16] = target: T3, Peroxisome proliferator-activated receptor gamma; test: Effective concentration against human PPAR-gamma in Gal4 transactivation assay; 59% response at 3 uM; assay type: functional
[17] = target: T3, Peroxisome proliferator-activated receptor gamma; test: Effective concentration against human PPAR-gamma in Gal4 transactivation assay; assay type: functional
[18] = target: T3, Peroxisome proliferator-activated receptor gamma; test: Effective concentration against human PPAR-gamma in Gal4 transactivation assay; 2% response at 3 uM; assay type: functional
[19] = target: T3, Peroxisome proliferator-activated receptor gamma; test: Effective concentration against human PPAR-gamma in Gal4 transactivation assay; 19% response at 3 uM; assay type: functional
[20] = target: T3, Peroxisome proliferator-activated receptor gamma; test: Effective concentration required to produce 50% of maximal reporter activity in cell based transactivation assay using human PPAR-gamma-GAL4 chimeric receptor; 6% response at 3 uM ccompound concentration; assay type: functional
[21] = target: T3, Peroxisome proliferator-activated receptor gamma; test: Effective concentration against human PPAR-gamma in Gal4 transactivation assay; 30% response at 3 uM; assay type: functional

Row | SMILES | IC50 [1] | EC50 [2] | IC50 [3] | IC50 [7] | EC50 [8] | further results
1 | CC[C@@]1(C(=O)O)Cc2cc(OCCCOc3ccc(CC(F)(F)F)cc3Cl)ccc2O1 | > 15000 nM | 2 nM | > 15000 nM | 4 nM | < 1 nM | TC (Cricetinae gen. sp. [4]): -33%; TG (Cricetinae gen. sp. [5]): -13%; EC50 [6]: > 3000 nM; TG (Cricetinae gen. sp. [9]): -26%; TC (Cricetinae gen. sp. [10]): -37%
2 | CC[C@@]1(C(=O)O)Cc2cc(OCCCOc3ccc(CCC(F)(F)F)cc3Cl)ccc2O1 | > 15000 nM | – | > 15000 nM | 21 nM | 2 nM | –
3 | CC(C)(C)[C@@]1(C(=O)O)Cc2cc(OCCOc3ccc(OC(F)(F)F)cc3Cl)ccc2O1 | > 50000 nM | – | > 50000 nM | 1390 nM | – | –
4 | CC[C@]1(C(=O)O)Cc2cc(OCCCOc3ccc(OC(F)(F)F)cc3Cl)ccc2O1 | > 50000 nM | – | > 15000 nM | 2230 nM | – | –
5 | CC(C)[C@]1(C(=O)O)Cc2cc(OCCCOc3ccc(OC(F)(F)F)cc3Cl)ccc2O1 | > 15000 nM | – | > 50000 nM | 1280 nM | – | –
6 | CC[C@@]1(C(=O)O)Cc2cc(OCCCOc3ccc(OCC(F)(F)F)cc3)ccc2O1 | > 15000 nM | – | > 50000 nM | 231 nM | 130 nM | –
7 | CC(C)[C@@]1(C(=O)O)Cc2cc(OCCOc3ccc(OC(F)(F)F)cc3Cl)ccc2O1 | > 50000 nM | 57 nM | > 50000 nM | 264 nM | 10 nM | EC50 [11]: > 3000 nM
8 | CC(C)[C@@]1(C(=O)O)Cc2cc(OCCCOc3ccc(OC(F)(F)F)cc3Cl)ccc2O1 | > 15000 nM | – | > 15000 nM | 3 nM | < 1 nM | TC (Cricetinae gen. sp. [4]): -43%; TG (Cricetinae gen. sp. [5]): -52%; EC50 [12]: > 3000 nM; TG (Cricetinae gen. sp. [9]): -52%; TC (Cricetinae gen. sp. [10]): -54%
9 | CCC1(C(=O)O)Cc2ccc(OCCCOc3ccc(OC(F)(F)F)cc3Cl)cc2O1 (stereo not drawn) | 1190 nM | – | 3220 nM | 22 nM | < 1 nM | –
10 | CC(C)[C@@]1(C(=O)O)Cc2cc(OCCCOc3cc(C(F)(F)F)ccc3Cl)ccc2O1 | > 15000 nM | 41 nM | > 15000 nM | 162 nM | 42 nM | EC50 [13]: > 3000 nM
11 | CCC1(C(=O)O)Cc2cc(OCCCOc3ccc(C(F)(F)F)cc3Cl)ccc2O1 (racemic) | 834 nM | – | > 15000 nM | 42 nM | – | –
12 | CCC1(C(=O)O)Cc2cc(OCCCOc3ccc(CC(C)(C)C)cc3Cl)ccc2O1 (racemic) | > 50000 nM | – | 5600 nM | 4 nM | 2 nM | EC50 [14]: > 3000 nM
13 | CCC1(C(=O)O)Cc2cc(OCCCOc3ccc(C(C)(C)C)cc3Cl)ccc2O1 (racemic) | > 15000 nM | 9 nM | 4330 nM | 17 nM | 20 nM | EC50 [15]: > 3000 nM
14 | CCCc1cc(SC(F)(F)F)ccc1OCCCOc1ccc2c(c1)CC(CC)(C(=O)O)O2 (racemic) | 5230 nM | 8 nM | 3110 nM | 11 nM | < 1 nM | EC50 [16]: > 3000 nM
15 | CC1(C(=O)O)Cc2cc(OCCCOc3ccc(OCC(F)(F)F)cc3Cl)ccc2O1 (racemic) | > 15000 nM | 138 nM | > 15000 nM | 106 nM | 42 nM | EC50 [17]: > 3000 nM
16 | O=C(O)C1(C(F)(F)F)Cc2cc(OCCCOc3ccc(CC(F)(F)F)cc3Cl)ccc2O1 (racemic) | 399 nM | 37 nM | > 15000 nM | 9 nM | 26 nM | EC50 [18]: > 3000 nM
17 | CCC1(C(=O)O)Cc2cc(OCCCOc3ccc(OCC(F)(F)F)cc3Cl)ccc2O1 (racemic) | > 15000 nM | 34 nM | > 15000 nM | 32 nM | 8 nM | EC50 [19]: > 3000 nM
18 | O=C(O)C1(Cc2ccccc2)Cc2cc(OCCCOc3ccc(OC(F)(F)F)cc3Cl)ccc2O1 (racemic) | > 50000 nM | – | > 15000 nM | 275 nM | – | –
19 | O=C(O)C1Cc2cc(OCCCOc3ccc(OCC(F)(F)F)cc3Cl)ccc2O1 (racemic) | > 15000 nM | – | > 15000 nM | 786 nM | 1350 nM | –
20 | CC(C)(C)C1(C(=O)O)Cc2cc(OCCCOc3ccc(CC(F)(F)F)cc3Cl)ccc2O1 (racemic) | > 50000 nM | – | > 15000 nM | 7 nM | 2 nM | EC50 [20]: > 3000 nM
21 | CCC1(C(=O)O)Cc2cc(OCCCOc3ccc(SC(F)(F)F)cc3Cl)ccc2O1 (racemic) | > 15000 nM | 3 nM | 6770 nM | 3 nM | < 1 nM | EC50 [21]: > 3000 nM

— ChEMBL document CHEMBL1144356 (J Med Chem, 2005)
